From patent US20190125701A1 (priority 2016, published 2019)
“Also recorded” adds a separate entry of the source.

What was measured:
mCMV [1] = test: Plaque size assay; conditions: varying drug concentrations, measured 5 dpi
mCMV [2] = assay type: in vivo, mouse; conditions: for parameters of somatic development: body and tail length, eyelid opening, fur maturation; for CMV load in liver and lungs: treated PND 1 to 10, plaque assay at PND 12
mCMV [3] = test: Vertical pole test; assay type: in vivo, mouse; conditions: P28-P30; 3 out of 20 infected untreated failed
Protocol: Briefly, mice were individually placed head-downward at the top of a vertical rough-surfaced pole (diameter, 8 mm; height, 55 cm) and allowed to descend in a round of habituation. Then, mice were placed head-upward at the top of the pole. The time required for the animal to descend to the floor was recorded as the locomotor activity time (TLA), with a maximum duration of 120 seconds. If a mouse fell, was unable to turn downward or was unable to climb down, a default locomotor activity time value was recorded as 120 seconds. Each mouse was given three trials with a 30 second-recovery period between trials.

mCMV [4] = test: Challenging beam traversal test; assay type: in vivo, mouse; conditions: P28-P30
mCMV [5] = test: Three-chamber test of sociability and social novelty; assay type: in vivo, mouse; conditions: 5 weeks of age
Source text: Sociability and preference for social novelty were investigated at 5 weeks of age in a three-compartment apparatus (Yang, et al., 2011, Curr. Protoc. Neurosci. Chapter 8:Unit 8.26). Initially, test and control animals were allowed to explore the apparatus freely for a 10-min period (habituation). For the social approach paradigm, an unfamiliar conspecific (same sex, similar age and weight) animal was placed into one of the side compartments and restrained by a small wire object (‘social cage’). The compartment on the other side contained an empty wire object (‘empty cage’). The test subject was then released into the center compartment and allowed to explore the three-compartment apparatus freely for 10 min. Behavior was videotaped and assessed for the time(s) that the test subject spent in the three compartments and in close proximity to the social and empty cages. For the social-novelty paradigm, another unfamiliar conspecific animal was placed in the previously empty wire object (‘novel cage’). The behavior of the test mouse was recorded for 10 min and assessed for the time spent exploring the known and novel conspecifics.

mCMV [6] = test: Exploratory activity in adapted small open field; assay type: in vivo, mouse; conditions: P30-40, 3-min session
hCMV [7] = test: hCMV virus yield reduction assay in human fetal astrocytes; assay type: cell-based, human CMV
Source text: In the virus yield reduction assay, after viral adsorption, cells were washed twice with PBS and replenished with fresh medium containing the compounds to be tested. At 72 hpi medium was collected and titered by plaque assay using HDF monolayers to assess the drug-mediated inhibition of virus replication in human fetal brain astrocytes.

mCMV [8] = conditions: for antiviral activity after drug removal: 24 hrs pre-treatment, compounds removed before virus inoculation; for effect on mCMV infection: cells pre-treated with drug prior to mCMV inoculation; for CMV inhibition with delayed drug addition: compounds added 2 to 12 hours after virus inoculation; for number of infected cells: drug at low concentration (100 μM) present 0-48 hpi, NIH/3T3, MOI 0.1
mCMV [9] = conditions: P2 to P14
[10] = test system: Vesicular Stomatitis Virus; conditions: Ornaghi, et al., 2016; cited from earlier work
[11] = cited from earlier work
mCMV [12] = test: Hindlimb clasping test; conditions: P28-P30
mCMV [13] = test: Virucidal activity assay on free virions; conditions: 100 μM with undiluted mCMV for 2 hours at 4° C. or 37° C., then diluted to 10 nM
hCMV [14] = test: hCMV infectivity assay in human fetal astrocytes; conditions: 100 μM, 1 h pre-treatment, MOI 0.1, 48 hpi
mCMV [15] = test: Viral yield reduction assay after short drug exposure; conditions: 100 μM for 2 hrs at viral challenge, supernatants at 72 hpi
mCMV [16] = test: Viral binding and fusion experiments (4° C./37° C. shift); conditions: 100 μM, NIH/3T3, MOI 0.1, infectivity at 48 hpi
hCMV [17] = test: hCMV attachment and internalization in human fetal astrocytes by qPCR; conditions: 100 μM
hCMV [18] = test: Quantification of hCMV-GFP infection in normal human dermal fibroblasts and U-373 glioblastoma cells; conditions: pre-treatment prior to hCMV-GFP inoculation
[19] = test system: Vesicular Stomatitis Virus; assay type: cell-based, VSV
Sindbis virus (SIN) = assay type: cell-based
CMV IE1/2 promoter = conditions: NIH/3T3, VPD 1 mM for 24 hours, plasmid transfection
Protocol: To investigate the effects on the immediate early phase of viral replication, NIH/3T3 cells exposed to VPD (1 mM) for 24 hours, were transfected with a CMV promoter (IE1/IE2)-driven reporter plasmid (pCMV-tdTomato) expressing the red fluorescent protein tdTomato.

mCMV [20] = test: Ethidium homodimer (EthD-1) cytotoxicity assay of mCMV-infected NIH/3T3 cells; conditions: NIH/3T3, 24 hrs pre-treatment, MOI 0.4, 72 hpi

Compound	CMV plaque size (mCMV [1])	parameters of somatic development (mCMV [2])	CMV load in liver and lungs (mCMV [2])	antiviral activity after drug removal (mCMV [8])	effect on mCMV infection (mCMV [8])	CMV inhibition with delayed drug addition (mCMV [8])	number of infected cells (mCMV [8])	virucidal activity on virions (mCMV [13])	virus production (mCMV [15])	CMV binding to cells (mCMV [16])	effect on human CMV infection (hCMV [18])	other results
CCC(C)C(C(N)=O)C(C)C (stereo not shown) [SID, 2-isopropyl-3-methylpentanamide]	reduced											
CCCC(C(N)=O)C(C)CC (stereo not shown) [SPD, 3-methyl-2-propylpentanamide]	slightly more effective than either valpromide or valnoctamide; also recorded: reduced											
CCC(C)C(CC)C(N)=O (stereo not shown) [VCD, 2-ethyl-3-methylpentanamide]	reduced	markedly improved	markedly decreased	loss of antiviral activity	inhibited	no inhibition	50%	No direct inactivation of virions	significantly decreases virus production	inhibit CMV binding to cells	inhibited	mice failing the vertical pole test (mCMV [3]): no VCD-treated mice or uninfected controls failed; beam traversal time and number of slips (mCMV [4]): significantly improved the coordination and balance; preference for social novelty (mCMV [5]): restored social novelty responses; rearing and nose-poking events (mCMV [6]): Normal levels of exploratory activity were restored; reduction in viral titer (hCMV [7]; 100 μM VCD versus vehicle): approximately 100 fold; viral titer (hCMV [7]; 100 μM VCD, MOI 0.1, vehicle 4.92×10^5±5.84×10^4): 6.31×10^3±3.06×10^3 PFU/ml; acquisition of neurological milestones in infected pups (mCMV [9]): timely acquisition of neurological milestones; antiviral effect on vesicular stomatitis virus [10]: no antiviral effect; conversion to corresponding free acid (valnoctic acid) ([11]; in vivo): little conversion; hindlimb clasping response (mCMV [12]): completely reversed this altered behavior; hCMV infectivity (GFP-positive cells) (hCMV [14]): substantially decreased hCMV infectivity; decrease of virus bound to the cell surface versus control (hCMV [17]; 4° C.): 60%; CMV fusion/internalization (hCMV [17]; 37° C.): did not appear to block CMV fusion/internalization
CCCC(CCC)C(N)=O [VPD, 2-propylpentanamide]	reduced	markedly improved	markedly decreased	loss of antiviral activity	robust dose-dependent inhibitory effect	no inhibition	50%	No direct inactivation of virions	significantly decreases virus production	inhibit CMV binding to cells	inhibited human CMV infection	VSV infection compared to control [19]: 101%±5%; SIN infection compared to control (Sindbis virus (SIN)): 107%±3%; fraction metabolized to VPA ([11]; humans): > 80%; number of red (tdTomato) cells compared to control (CMV IE1/2 promoter): 96%±4%; viral-mediated cell death / cell survival (mCMV [20]): increased cell survival
ivermectin												CMV infection compared to control (mCMV [8]; ivermectin used at 1 μM, CMV type not stated): 99%±9%
